Our source for the inhibition of growth values is patent publication US12471596B2 (priority 2019, dated 2025).

In the assay the test system is Phytophthora infestans. Description: microbe, parasite or virus in culture. Particulars: in Secale cereale, 168 h, read-out: control compared to the untreated check. It counts as cell-based.

As for `O=C(COc1cncc(C(F)(F)F)n1)N1CCC(c2nc(C3=NOC(c4c(Cl)cccc4Cl)C3)cs2)CC1` (centres unmarked) [Compound 55, 1-(4-(4-(5-(2,6-dichlorophenyl)-4,5-dihydroisoxazol-3-yl)thiazol-2-yl)piperidin-1-yl)-2-((6-(trifluoromethyl)pyrazin-2-yl)oxy)ethan-1-one], the inhibition of growth at 30 ppm was not below 70%. Under `COc1cc(OCC(=O)N2CCC(c3nc(C4=NOC(c5c(Cl)cccc5OS(C)(=O)=O)C4)cs3)CC2)ncn1` (centres unmarked) [Compound 160, 3-chloro-2-(3-(2-(1-(2-((6-methoxypyrimidin-4-yl)oxy)acetyl)piperidin-4-yl)thiazol-4-yl)-4,5-dihydroisoxazol-5-yl)phenyl methanesulfonate] stands not below 70%.

As to `CS(=O)(=O)Oc1ccc(F)c2c1COC(c1csc(C3CCN(C(=O)COc4nccnc4Cl)CC3)n1)OC2` (centres unmarked) [Compound 155, 3-(2-(1-(2-((3-chloropyrazin-2-yl)oxy)acetyl)piperidin-4-yl)thiazol-4-yl)-9-fluoro-1,5-dihydrobenzo[e][1,3]dioxepin-6-yl methanesulfonate], the inhibition of growth at 30 ppm was not below 70%. Then `CSc1nccnc1OCC(=O)N1CCC(c2nc(C3=NOC(c4c(Cl)cccc4C#N)C3)cs2)CC1` (centres unmarked) [Compound 146, 3-chloro-2-(3-(2-(1-(2-((3-(methylthio)pyrazin-2-yl)oxy)acetyl)piperidin-4-yl)thiazol-4-yl)-4,5-dihydroisoxazol-5-yl)benzonitrile], with not below 70%. Then `CSc1nccnc1OCC(=O)N1CCC(c2nc(C3=NOC(c4c(Cl)cccc4C(F)(F)F)C3)cs2)CC1` (centres unmarked) [Compound 143, 1-(4-(4-(5-(2-chloro-6-(trifluoromethyl)phenyl)-4,5-dihydroisoxazol-3-yl)thiazol-2-yl)piperidin-1-yl)-2-((3-(methylthio)pyrazin-2-yl)oxy)ethan-1-one], with not below 70%.

For the compound `CS(=O)(=O)c1nccnc1OCC(=O)N1CCC(c2nc(C3=NOC(c4c(F)cccc4Br)C3)cs2)CC1` (centres unmarked) [Compound 159, 1-(4-(4-(5-(2-bromo-6-fluorophenyl)-4,5-dihydroisoxazol-3-yl)thiazol-2-yl)piperidin-1-yl)-2-((3-(methylsulfonyl)pyrazin-2-yl)oxy)ethan-1-one], the inhibition of growth at 30 ppm was not below 70%. `COc1cncc(OCC(=O)N2CCC(c3nc(C4=NOC(c5c(Cl)ccc(F)c5F)C4)cs3)CC2)n1` (centres unmarked) [Compound 104, 1-(4-(4-(5-(6-chloro-2,3-difluorophenyl)-4,5-dihydroisoxazol-3-yl)thiazol-2-yl)piperidin-1-yl)-2-((6-methoxypyrazin-2-yl)oxy)ethan-1-one]: the inhibition of growth at 30 ppm is not below 70%.

Take `CS(=O)(=O)Oc1ccc(F)c2c1COC(c1csc(C3CCN(C(=O)COc4nccnc4C(F)(F)F)CC3)n1)OC2` (centres unmarked) [Compound 154, 9-fluoro-3-(2-(1-(2-((3-(trifluoromethyl)pyrazin-2-yl)oxy)acetyl)piperidin-4-yl)thiazol-4-yl)-1,5-dihydrobenzo[e][1,3]dioxepin-6-yl methanesulfonate]: the inhibition of growth at 30 ppm was not below 70%. Then `COc1nccnc1OCC(=O)N1CCC(c2nc(C3=NOC(c4c(Cl)cccc4Cl)C3)cs2)CC1` (centres unmarked) [Compound 30, 1-(4-(4-(5-(2,6-dichlorophenyl)-4,5-dihydroisoxazol-3-yl)thiazol-2-yl)piperidin-1-yl)-2-((3-methoxypyrazin-2-yl)oxy)ethan-1-one], with not below 70%. Then `O=C(COc1cncc(C(F)(F)F)n1)N1CCC(c2nc(C3=NOC(c4c(F)cccc4Cl)C3)cs2)CC1` (centres unmarked) [Compound 53, 1-(4-(4-(5-(2-chloro-6-fluorophenyl)-4,5-dihydroisoxazol-3-yl)thiazol-2-yl)piperidin-1-yl)-2-((6-(trifluoromethyl)pyrazin-2-yl)oxy)ethan-1-one], with not below 70%. Take `COc1ncc(OCC(=O)N2CCC(c3nc(C4=NOC(c5c(O)cccc5Cl)C4)cs3)CC2)cn1` (centres unmarked) [Compound 138, 1-(4-(4-(5-(2-chloro-6-hydroxyphenyl)-4,5-dihydroisoxazol-3-yl)thiazol-2-yl)piperidin-1-yl)-2-((2-methoxypyrimidin-5-yl)oxy)ethan-1-one]: the inhibition of growth at 30 ppm was not below 70%. Turning to `COc1cncnc1OCC(=O)N1CCC(c2nc(C3=NOC(c4c(Cl)ccc(F)c4F)C3)cs2)CC1` (centres unmarked) [Compound 81, 1-(4-(4-(5-(6-chloro-2,3-difluorophenyl)-4,5-dihydroisoxazol-3-yl)thiazol-2-yl)piperidin-1-yl)-2-((5-methoxypyrimidin-4-yl)oxy)ethan-1-one], the inhibition of growth at 30 ppm was not below 70%. Then `COc1nc(OC)nc(OCC(=O)N2CCC(c3nc(C4=NOC(c5c(Cl)cccc5OS(C)(=O)=O)C4)cs3)CC2)n1` (centres unmarked) [Compound 107, 3-chloro-2-(3-(2-(1-(2-((4,6-dimethoxy-1,3,5-triazin-2-yl)oxy)acetyl)piperidin-4-yl)thiazol-4-yl)-4,5-dihydroisoxazol-5-yl)phenyl methanesulfonate], with not below 70%; and `O=C(COc1nccc(C(F)(F)F)n1)N1CCC(c2nc(C3=NOC(c4c(O)cccc4Cl)C3)cs2)CC1` (centres unmarked) [Compound 85, 1-(4-(4-(5-(2-chloro-6-hydroxyphenyl)-4,5-dihydroisoxazol-3-yl)thiazol-2-yl)piperidin-1-yl)-2-((4-(trifluoromethyl)pyrimidin-2-yl)oxy)ethan-1-one], with not below 70%; and `COc1nc(OC)nc(OCC(=O)N2CCC(c3nc(C4=NOC(c5c(Cl)cccc5C(F)(F)F)C4)cs3)CC2)n1` (centres unmarked) [Compound 105, 1-(4-(4-(5-(2-chloro-6-(trifluoromethyl)phenyl)-4,5-dihydroisoxazol-3-yl)thiazol-2-yl)piperidin-1-yl)-2-((4,6-dimethoxy-1,3,5-triazin-2-yl)oxy)ethan-1-one], with not below 70%. Then `COc1cncnc1OCC(=O)N1CCC(c2nc(C3=NOC(c4c(O)cccc4Cl)C3)cs2)CC1` (centres unmarked) [Compound 79, 1-(4-(4-(5-(2-chloro-6-hydroxyphenyl)-4,5-dihydroisoxazol-3-yl)thiazol-2-yl)piperidin-1-yl)-2-((5-methoxypyrimidin-4-yl)oxy)ethan-1-one], with not below 70%; and `O=C(COc1nccc(C(F)(F)F)n1)N1CCC(c2nc(C3=NOC(c4c(Cl)cccc4C(F)(F)F)C3)cs2)CC1` (centres unmarked) [Compound 84, 1-(4-(4-(5-(2-chloro-6-(trifluoromethyl)phenyl)-4,5-dihydroisoxazol-3-yl)thiazol-2-yl)piperidin-1-yl)-2-((4-(trifluoromethyl)pyrimidin-2-yl)oxy)ethan-1-one], with not below 70%.

Turning to `O=C(COc1cncc(C(F)(F)F)n1)N1CCC(c2nc(C3=NOC(c4c(F)cccc4Br)C3)cs2)CC1` (centres unmarked) [Compound 59, 1-(4-(4-(5-(2-bromo-6-fluorophenyl)-4,5-dihydroisoxazol-3-yl)thiazol-2-yl)piperidin-1-yl)-2-((6-(trifluoromethyl)pyrazin-2-yl)oxy)ethan-1-one], the inhibition of growth at 30 ppm is not below 70%. On to `O=C(COc1nccc(C(F)(F)F)n1)N1CCC(c2nc(C3=NOC(c4c(Cl)cc(Cl)cc4Cl)C3)cs2)CC1` (centres unmarked) [Compound 49, 1-(4-(4-(5-(2,4,6-trichlorophenyl)-4,5-dihydroisoxazol-3-yl)thiazol-2-yl)piperidin-1-yl)-2-((4-(trifluoromethyl)pyrimidin-2-yl)oxy)ethan-1-one], for which the inhibition of growth at 30 ppm was not below 70%. On to `N#Cc1cccc(Cl)c1C1CC(c2csc(C3CCN(C(=O)COc4cncc(C(F)(F)F)n4)CC3)n2)=NO1` (centres unmarked) [Compound 56, 3-chloro-2-(3-(2-(1-(2-((6-(trifluoromethyl)pyrazin-2-yl)oxy)acetyl)piperidin-4-yl)thiazol-4-yl)-4,5-dihydroisoxazol-5-yl)benzonitrile], for which the inhibition of growth at 30 ppm is not below 70%.

For `CSc1nccnc1OCC(=O)N1CCC(c2nc(C3=NOC(c4c(Cl)ccc(F)c4F)C3)cs2)CC1` (centres unmarked) [Compound 147, 1-(4-(4-(5-(6-chloro-2,3-difluorophenyl)-4,5-dihydroisoxazol-3-yl)thiazol-2-yl)piperidin-1-yl)-2-((3-(methylthio)pyrazin-2-yl)oxy)ethan-1-one], the inhibition of growth at 30 ppm is not below 70%. With `O=C(COc1cc(C(F)(F)F)ncn1)N1CCC(c2nc(C3=NOC(c4c(Cl)cc(Cl)cc4Cl)C3)cs2)CC1` (centres unmarked) [Compound 11, 1-(4-(4-(5-(2,4,6-trichlorophenyl)-4,5-dihydroisoxazol-3-yl)thiazol-2-yl)piperidin-1-yl)-2-((6-(trifluoromethyl)pyrimidin-4-yl)oxy)ethan-1-one], the inhibition of growth at 30 ppm was not below 70%. As to `O=C(COc1cnc(C(F)(F)F)cn1)N1CCC(c2nc(C3=NOC(c4c(Cl)cccc4C(F)(F)F)C3)cs2)CC1` (centres unmarked) [Compound 69, 1-(4-(4-(5-(2-chloro-6-(trifluoromethyl)phenyl)-4,5-dihydroisoxazol-3-yl)thiazol-2-yl)piperidin-1-yl)-2-((5-(trifluoromethyl)pyrazin-2-yl)oxy)ethan-1-one], the inhibition of growth at 30 ppm was not below 70%. `COc1cncc(OCC(=O)N2CCC(c3nc(C4=NOC(c5c(Cl)cccc5OS(C)(=O)=O)C4)cs3)CC2)n1` (centres unmarked) [Compound 103, 3-chloro-2-(3-(2-(1-(2-((6-methoxypyrazin-2-yl)oxy)acetyl)piperidin-4-yl)thiazol-4-yl)-4,5-dihydroisoxazol-5-yl)phenyl methanesulfonate]: the inhibition of growth at 30 ppm was not below 70%. Under `O=C(COc1nccnc1Cl)N1CCC(c2nc(C3=NOC(c4c(Cl)ccc(F)c4F)C3)cs2)CC1` (centres unmarked) [Compound 111, 1-(4-(4-(5-(6-chloro-2,3-difluorophenyl)-4,5-dihydroisoxazol-3-yl)thiazol-2-yl)piperidin-1-yl)-2-((3-chloropyrazin-2-yl)oxy)ethan-1-one] stands not below 70%. Then `COc1ccnc(OCC(=O)N2CCC(c3nc(C4=NOC(c5c(Cl)cccc5C(F)(F)F)C4)cs3)CC2)n1` (centres unmarked) [Compound 82, 1-(4-(4-(5-(2-chloro-6-(trifluoromethyl)phenyl)-4,5-dihydroisoxazol-3-yl)thiazol-2-yl)piperidin-1-yl)-2-((4-methoxypyrimidin-2-yl)oxy)ethan-1-one], with not below 70%.
